Measured values as given in patent US20260007651A1, “Effect of YEL002 on Conditions and Diseases” (RadMit, Inc., priority 2022, published 2026).

Tested on: lymphoma
Experiment: Lymphoma incidence in mice (National Institute of Health experiment)
Assay type: in vivo
Conditions: reduced from 10-20%
Method: This was observed after treating mice right after birth, if humans are treated later in life it is possible that only 10 or 5 years are added and probably more for DNA repair deficient diseases like ataxia telangiectasia (ATM) which is still very substantial.

COc1ccc2cc(-c3nc4ccc(C)cn4c3NCc3ccco3)c(=O)[nH]c2c1 [YEL002]
spontaneous frequency of lymphoma: 0%
